Experimental data: the supplement of paper PMC10307832

Key:
Assay in all cases: relative viability (nuclei count vs DMSO), 5 days (fraction); higher = more cells survive
AZ628 + Pictilisib = compound: CC1=C(C=C(C=C1)NC(=O)C2=CC(=CC=C2)C(C)(C)C#N)NC3=CC4=C(C=C3)N=CN(C4=O)C [AZ628] + CS(=O)(=O)N1CCN(Cc2cc3nc(-c4cccc5[nH]ncc45)nc(N4CCOCC4)c3s2)CC1 [Pictilisib] (partner 1 µM)
Outline: (§1)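 Values are medians from duplicate plates. Each reflects relative viability, defined as the nuclei count of treated wells over that of vehicle wells. Lung cancer cell lines in 1536-well plates were pin-tool dosed one day after seeding with one drug alone or with a fixed anchor-drug dose plus five library-drug doses (not always all listed) in √10 steps, then fixed, stained and imaged at 4× after 5 days.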

AZ628 + Linsitinib = compound: CC1=C(C=C(C=C1)NC(=O)C2=CC(=CC=C2)C(C)(C)C#N)NC3=CC4=C(C=C3)N=CN(C4=O)C [AZ628] + C[C@]1(O)C[C@@H](c2nc(-c3ccc4ccc(-c5ccccc5)nc4c3)c3c(N)nccn32)C1 [Linsitinib] (partner 1 µM)
Outline: as §1

[1] = compound: C[As](C)SC[C@H](NC(=O)CC[C@H](N)C(=O)O)C(=O)NCC(=O)O [Darinaparsin] + CC(=O)c1c(C)c2cnc(Nc3ccc(N4CCNCC4)cn3)nc2n(C2CCCC2)c1=O [Palbociclib] (partner 0.5 µM)
Outline: as §1

[2] = compound: C[As](C)SC[C@H](NC(=O)CC[C@H](N)C(=O)O)C(=O)NCC(=O)O [Darinaparsin] + Nc1nc2[nH]cc(CCc3ccc(C(=O)N[C@@H](CCC(=O)O)C(=O)O)cc3)c2c(=O)[nH]1 [Pemetrexed] (partner 0.2 µM)
Outline: as §1

Row | Cell Line | relative viability (AZ628 + Pictilisib; first compound 0.08 µM) | relative viability (AZ628 + Pictilisib; first compound 0.253 µM) | relative viability (AZ628 + Pictilisib; first compound 0.8 µM) | relative viability (AZ628 + Pictilisib; first compound 2.53 µM) | relative viability (AZ628 + Pictilisib; first compound 8 µM) | relative viability (AZ628 + Linsitinib; first compound 0.08 µM) | relative viability (AZ628 + Linsitinib; first compound 0.253 µM) | relative viability (AZ628 + Linsitinib; first compound 0.8 µM) | relative viability (AZ628 + Linsitinib; first compound 2.53 µM) | relative viability (AZ628 + Linsitinib; first compound 8 µM) | relative viability ([1]; first compound 0.08 µM) | relative viability ([1]; first compound 0.8 µM) | relative viability ([1]; first compound 2.53 µM) | relative viability ([1]; first compound 8 µM) | relative viability ([2]; first compound 0.08 µM) | relative viability ([2]; first compound 0.8 µM) | relative viability ([2]; first compound 2.53 µM) | relative viability ([2]; first compound 8 µM)
1 | COR-L23 | 0.767 | 0.73 | 0.651 | 0.653 | 0.346 | 1.05 | 0.886 | 0.986 | 0.81 | 0.492 | 0.303 | 0.335 | 0.246 | 0.299 | 0.198 | 0.209 | 0.18 | 0.2
2 | NCI-H1734 | 0.432 | 0.359 | 0.351 | 0.367 | 0.306 | 0.853 | 0.794 | 0.804 | 0.759 | 0.496 | 0.35 | 0.332 | 0.361 | 0.395 | 0.421 | 0.389 | 0.442 | 0.466
3 | NCI-H23 | 0.407 | 0.319 | 0.261 | 0.312 | 0.246 | 0.562 | 0.481 | 0.28 | 0.376 | 0.32 | 0.549 | 0.52 | 0.51 | 0.479 | 0.933 | 0.616 | 0.643 | 0.74
4 | NCI-H647 | 0.385 | 0.163 | 0.313 | 0.247 | 0.27 | 1.36 | 1.27 | 1.07 | 1.19 | 1.05 | 0.467 | 0.406 | 0.357 | 0.561 | 0.189 | 0.156 | 0.166 | 0.146
5 | NCI-H1915 | 0.822 | 0.67 | 0.693 | 0.493 | 0.313 | 1.08 | 1.11 | 1.07 | 0.85 | 0.683 | 0.573 | 0.52 | 0.502 | 0.539 | 0.495 | 0.446 | 0.494 | 0.662
6 | 201T | 0.688 | 0.659 | 0.691 | 0.71 | 0.723 | 1.06 | 0.978 | 1.07 | 1 | 0.998 | 0.345 | 0.342 | 0.363 | 0.368 | 0.374 | 0.33 | 0.33 | 0.363
7 | NCI-H3122 | 0.286 | 0.218 | 0.214 | 0.214 | 0.234 | 0.931 | 0.83 | 0.686 | 0.701 | 0.388 | 0.19 | 0.223 | 0.223 | 0.201 | 0.195 | 0.193 | 0.197 | 0.222
8 | HCC-78 | 0.373 | 0.21 | 0.211 | 0.228 | 0.231 | 0.704 | 0.524 | 0.479 | 0.499 | 0.518 | 0.46 | 0.509 | 0.475 | 0.503 | 0.953 | 0.884 | 0.838 | 0.964
9 | HARA | 0.331 | 0.379 | 0.283 | 0.337 | 0.287 | 0.774 | 0.847 | 0.888 | 0.934 | 0.309 | 0.25 | 0.257 | 0.21 | 0.29 | 0.269 |  | 0.22 | 0.294
10 | NCI-H2347 | 0.321 | 0.437 | 0.312 | 0.32 | 0.287 | 0.719 | 0.928 | 0.741 | 0.792 | 0.639 | 0.43 | 0.404 | 0.447 | 0.4 | 0.444 | 0.396 | 0.408 | 0.477
11 | NCI-H1437 | 0.505 | 0.476 | 0.526 | 0.532 | 0.483 | 0.966 | 0.846 | 0.958 | 0.779 | 0.848 | 0.321 | 0.307 | 0.328 | 0.338 | 0.34 | 0.371 | 0.301 | 0.329
12 | LXF-289 | 0.779 | 0.712 | 0.754 | 0.654 | 0.401 | 1.02 | 0.949 | 0.932 | 0.92 | 0.589 | 0.638 | 0.611 | 0.488 | 0.562 | 0.888 | 0.962 | 0.894 | 0.965
13 | NCI-H1792 | 0.251 | 0.296 | 0.212 | 0.223 | 0.149 | 0.583 | 0.54 | 0.435 | 0.48 | 0.339 | 0.634 | 0.633 | 0.524 | 0.754 | 1.14 | 0.829 |  | 0.921
14 | LU99A | 0.274 | 0.306 | 0.362 | 0.331 | 0.205 | 0.485 | 0.444 | 0.686 | 0.678 | 0.274 | 0.425 | 0.438 | 0.354 | 0.451 | 0.19 | 0.161 | 0.384 | 0.194
15 | NCI-H358 | 0.341 | 0.289 | 0.286 | 0.308 | 0.349 | 0.644 | 0.622 | 0.66 | 0.582 | 0.398 | 0.141 | 0.128 | 0.127 | 0.139 | 0.176 | 0.162 | 0.172 | 0.18
16 | NCI-H1666 | 0.404 | 0.296 | 0.339 | 0.362 | 0.313 | 0.809 | 0.57 | 0.551 | 0.753 | 0.553 | 0.666 | 0.673 | 0.634 | 0.678 | 0.91 | 0.854 | 0.984 | 0.955
